The test system of series [1] is PC-12. In words: Induction of HO-1 protein expression in rat PC12 cells at 10 uM after 24 hrs by Western blot analysis. It is filed as functional, cell-based.
The target of series [2] is T1, Nuclear factor erythroid 2-related factor 2 (Rattus norvegicus) (UniProt O54968).
T1 sequence (whole entry): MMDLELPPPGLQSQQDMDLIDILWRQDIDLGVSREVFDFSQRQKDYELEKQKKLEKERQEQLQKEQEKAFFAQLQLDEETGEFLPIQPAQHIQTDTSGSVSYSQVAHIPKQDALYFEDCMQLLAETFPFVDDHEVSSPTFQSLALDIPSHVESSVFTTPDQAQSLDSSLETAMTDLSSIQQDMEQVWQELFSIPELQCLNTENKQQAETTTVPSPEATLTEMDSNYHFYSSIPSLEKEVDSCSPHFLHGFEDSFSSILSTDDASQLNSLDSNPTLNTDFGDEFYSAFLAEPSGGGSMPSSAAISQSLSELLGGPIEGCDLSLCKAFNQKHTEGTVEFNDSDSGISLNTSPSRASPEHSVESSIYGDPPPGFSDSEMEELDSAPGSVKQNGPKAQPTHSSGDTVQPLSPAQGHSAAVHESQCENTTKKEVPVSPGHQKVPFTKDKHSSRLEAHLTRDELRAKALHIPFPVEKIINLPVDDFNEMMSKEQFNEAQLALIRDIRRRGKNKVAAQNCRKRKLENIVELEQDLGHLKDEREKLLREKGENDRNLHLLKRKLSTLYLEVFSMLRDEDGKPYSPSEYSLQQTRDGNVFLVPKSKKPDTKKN
The series is described as follows: Activation of Nrf2 in rat PC12 cells at 10 uM after 24 hrs by antioxidant response element-driven luciferase reporter gene assay. It is filed as functional, cell-based. To be noted: PC-12. For orientation: A reporter such as luciferase makes a cellular process visible.

Series [3] relates to PC-12. In words: Induction of HO-1 protein expression in rat PC12 cells at 10 uM after 3 hrs by Western blot analysis in presence of 2.5 […] N-acetyl-cysteine. The class given is functional, cell-based. In general terms: In western blotting, separated proteins are transferred to a membrane and probed.
The test system of series [4] is PC-12. In words: Increase in HO-1 protein expression in rat PC12 cells at 10 uM after 3 hrs by Western blot analysis. The class given is functional, cell-based.
In series [5] the test system is PC-12. In words: Induction of HO-1 protein expression in rat PC12 cells at 10 uM after 3 hrs by Western blot analysis in presence of 20 uM MEK1/2 inhibitor PD-98059. It is filed as functional, cell-based.
In series [6] the target is T1, Nuclear factor erythroid 2-related factor 2 (Rattus norvegicus). In words: Activation of Nrf2 in rat PC12 cells at 10 uM after 24 hrs by antioxidant response element-driven luciferase reporter gene assay relative to methysticin. As to conditions: PC-12. The class given is functional, cell-based.
In series [7] the test system is PC-12. The series is described as follows: Neuroprotective activity against H202-induced rat PC12 cell death at 10 uM treated 24 hrs before H202 challenge measured after 24 hrs by WST8 assay. The class given is functional, cell-based. A general note: Tetrazolium assays rely on reduction of a dye to a coloured formazan, in cell work by metabolically active cells.
In series [8] the test system is PC-12. The series is described as follows: Induction of NQO1 protein expression in rat PC12 cells at 10 uM after 24 hrs by Western blot analysis relative to control. The class given is functional.
Series [9] deals with PC-12. In words: Induction of HO-1 protein expression in rat PC12 cells at 10 uM after 24 hrs by Western blot analysis relative to methysticin. The class given is functional.
Series [10] has as its target T2, Mitogen-activated protein kinase 1 and 3 (ERK2 and ERK1) (Rattus norvegicus) (UniProt P63086+P21708). In words: Increase in Erk1/2 phosphorylation in rat PC12 cells at 10 uM after 5 mins by Western blot analysis. It is filed as cell-based. To be noted: PC-12.
Series [11] relates to PC-12. In words: Induction of Nrf2 release in rat PC12 cells assessed as increase in intracellular ROS level at 10 uM after 1 hr by CM-H2-DCFDA staining-based fluorescence assay. It is filed as functional, cell-based.
The test system of series [12] is PC-12. The series is described as follows: Increase in NQO1 protein expression in rat PC12 cells at 10 uM after 3 hrs by Western blot analysis. It is filed as functional, cell-based.
Series [13] deals with T1, Nuclear factor erythroid 2-related factor 2 (Rattus norvegicus). In words: Activation of Nrf2 in rat PC12 cells after 24 hrs by antioxidant response element-driven luciferase reporter gene assay relative to yangonin. It is filed as functional, cell-based. To be noted: PC-12.
Series [14] has the same target. The series is described as follows: Activation of Nrf2 in rat PC12 cells assessed as induction of translocation into nucleus at 10 uM after 24 hrs by Western blot analysis. The class given is functional, cell-based. As to conditions: PC-12.
Series [15] has as its system PC-12. The series is described as follows: Increase in p38 phosphorylation in rat PC12 cells at 10 uM after 5 mins by Western blot analysis. It is filed as cell-based.
For series [16], the system named is PC-12. The series is described as follows: Cytotoxicity against rat PC12 cells assessed as effect on cellular morphology at 50 to 100 uM after 24 hrs by WST8 assay. It is filed as cell-based. As to conditions: pc-12, 24 h.
For series [17], the target named is RAC-alpha serine/threonine-protein kinase (Rattus norvegicus) (UniProt P47196). The series is described as follows: Increase in Akt phosphorylation in rat PC12 cells at 10 uM after 24 hrs by Western blot analysis. It is filed as cell-based. As to conditions: PC-12.
For series [18], the system named is PC-12. In words: Induction of gamma-GCSc catalytic subunit protein expression in rat PC12 cells at 10 uM after 24 hrs by Western blot analysis relative to control. It is filed as functional.
Series [19] relates to PC-12. In words: Induction of HO-1 protein expression in rat PC12 cells at 10 uM after 24 hrs by Western blot analysis relative to control. The class given is functional.
Series [20] deals with T1, Nuclear factor erythroid 2-related factor 2 (Rattus norvegicus). In words: Activation of Nrf2 in rat PC12 cells at 10 uM after 24 hrs by antioxidant response element-driven luciferase reporter gene assay relative to kawain. It is filed as functional, cell-based. To be noted: PC-12.
Series [21] has the same target. In words: Activation of Nrf2 in rat PC12 cells assessed as induction of translocation into nucleus at 10 uM after 30 mins by Western blot analysis. It is filed as functional, cell-based. As to conditions: PC-12.
Series [22] addresses T2, Mitogen-activated protein kinase 1 and 3 (ERK2 and ERK1) (Rattus norvegicus). The series is described as follows: Increase in Erk1/2 phosphorylation in rat PC12 cells at 10 uM after 6 hrs by Western blot analysis. It is filed as cell-based. To be noted: PC-12.
Series [23] has as its system PC-12. In words: Induction of HO-1 protein expression in rat PC12 cells at 10 uM after 24 hrs by Western blot analysis relative to kawain. The class given is functional.
The subject of series [24] is PC-12. In words: Induction of HO-1 protein expression in rat PC12 cells at 10 uM after 3 hrs by Western blot analysis in presence of 5 uM p38 inhibitor SB-203580. The class given is functional, cell-based.
The subject of series [25] is PC-12. The series is described as follows: Induction of Nrf2 release in rat PC12 cells assessed as increase in intracellular ROS level at 10 uM after 3 hrs by CM-H2-DCFDA staining-based fluorescence assay. The class given is functional, cell-based.
Series [26] concerns PC-12. The series is described as follows: Induction of gamma-GCSc catalytic subunit protein expression in rat PC12 cells at 10 uM after 12 hrs by Western blot analysis. The class given is functional, cell-based.
In series [27] the test system is PC-12. The series is described as follows: Increase in HO-1 protein expression in rat PC12 cells at 10 uM treated 24 hrs before H202 challenge measured after 24 hrs by Western blot analysis. It is filed as functional, cell-based.
Series [28] concerns the target T1, Nuclear factor erythroid 2-related factor 2 (Rattus norvegicus). The series is described as follows: Activation of Nrf2 in rat PC12 cells at 10 uM after 24 hrs by antioxidant response element-driven luciferase reporter gene assay relative to yangonin. The class given is functional, cell-based. To be noted: PC-12.
Series [29] concerns PC-12. The series is described as follows: Induction of HO-1 protein expression in rat PC12 cells at 10 uM after 24 hrs by Western blot analysis relative to yangonin. It is filed as functional.
Series [30] relates to PC-12. The series is described as follows: Cytotoxicity against rat PC12 cells at 100 uM after 24 hrs by WST8 assay. It is filed as cell-based. To be noted: pc-12, 24 h.

Calls of active or inactive are those of the source. The calls are words filed in the database; no cut-off is given here.

T2 sequence (P21708 whole entry, looked up): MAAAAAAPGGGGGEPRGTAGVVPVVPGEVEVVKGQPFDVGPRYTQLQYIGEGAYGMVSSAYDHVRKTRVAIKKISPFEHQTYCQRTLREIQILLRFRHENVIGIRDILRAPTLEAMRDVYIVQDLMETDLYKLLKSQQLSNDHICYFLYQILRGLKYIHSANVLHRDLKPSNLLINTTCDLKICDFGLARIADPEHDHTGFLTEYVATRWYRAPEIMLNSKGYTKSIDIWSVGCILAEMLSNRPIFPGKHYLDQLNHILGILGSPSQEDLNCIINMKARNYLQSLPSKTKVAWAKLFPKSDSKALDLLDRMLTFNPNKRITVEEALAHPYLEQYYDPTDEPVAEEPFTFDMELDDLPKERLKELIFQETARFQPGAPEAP
T2 sequence (P63086 whole entry, looked up): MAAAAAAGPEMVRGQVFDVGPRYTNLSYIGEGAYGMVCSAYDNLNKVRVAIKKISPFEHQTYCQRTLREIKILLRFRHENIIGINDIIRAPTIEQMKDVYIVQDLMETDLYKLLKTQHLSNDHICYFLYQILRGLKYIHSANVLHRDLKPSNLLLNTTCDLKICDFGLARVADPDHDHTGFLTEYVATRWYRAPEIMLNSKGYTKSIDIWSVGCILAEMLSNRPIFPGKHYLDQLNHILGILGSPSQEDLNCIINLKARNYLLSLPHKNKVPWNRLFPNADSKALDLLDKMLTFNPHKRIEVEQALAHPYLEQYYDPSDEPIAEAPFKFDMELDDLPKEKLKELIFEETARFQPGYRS
Chain of RAC-alpha serine/threonine-protein kinase (Rattus norvegicus) (P47196 whole entry): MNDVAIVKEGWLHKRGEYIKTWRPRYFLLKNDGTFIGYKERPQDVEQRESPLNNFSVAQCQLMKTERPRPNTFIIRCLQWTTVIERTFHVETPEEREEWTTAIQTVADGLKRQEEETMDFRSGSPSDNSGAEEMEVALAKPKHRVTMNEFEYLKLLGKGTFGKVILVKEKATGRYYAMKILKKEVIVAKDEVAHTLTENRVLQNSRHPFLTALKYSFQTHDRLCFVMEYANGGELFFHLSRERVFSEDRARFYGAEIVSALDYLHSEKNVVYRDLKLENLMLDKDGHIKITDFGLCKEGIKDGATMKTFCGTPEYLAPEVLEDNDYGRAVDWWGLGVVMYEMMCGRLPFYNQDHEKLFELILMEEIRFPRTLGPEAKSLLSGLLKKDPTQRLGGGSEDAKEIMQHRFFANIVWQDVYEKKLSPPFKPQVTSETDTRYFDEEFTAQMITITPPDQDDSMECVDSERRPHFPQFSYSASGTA

Take `COC1=CC(=O)O[C@@H](/C=C/c2ccccc2)C1`: the result (with PC-12 [1]; in series [2]) was Active.

Consider `COC1=CC(=O)O[C@@H](/C=C/c2ccc3c(c2)OCO3)C1`, for which the result (with PC-12 [1]; in series [2]) was Active.

Turning to `COc1ccc(/C=C/c2cc(OC)cc(=O)o2)cc1`, the result (in the series on PC-12 [1]; in [2]) was Active.

`COCc1c(OC)cc(=O)oc1/C=C/c1c(Cl)cccc1Cl`: the outcome (in the series with PC-12 [3]; with PC-12 [5]; in series [17]; in [22]; in the series on PC-12 [24]; in the series on PC-12 [25]) was inactive. Moreover, the result (in the series on PC-12 [4]; in the series on PC-12 [7]; in [10]; with PC-12 [11]; with PC-12 [12]; in series [14]) was Active. Further, the result (with PC-12 [15]; in series [21]; in the series with PC-12 [26]; with PC-12 [27]) was Active. In addition, the fold change (FC) in series [6] amounted to 2; with PC-12 [8] it was 1.3; in the series with PC-12 [9], 3; in the series on PC-12 [18], 2; in the series on PC-12 [19], 2; in series [20] it was 2. Moreover, the figures for the “fold change (FC)” value (with PC-12 [23]; in series [28]; in the series with PC-12 [29]) were 3, 2 and 3, respectively. The Activity result is “Dose-dependent effect” in series [13], “Toxic” in the series with PC-12 [16] and “Non-toxic” in the series with PC-12 [30].

Values taken from ChEMBL document CHEMBL1158532, “A novel kavalactone derivative protects against H2O2-induced PC12 cell death via Nrf2/ARE activation” (Bioorg Med Chem, 2010).
